The target in experiment [1] is Human LATS1 kinase domain protein (Homo sapiens (Human), UniProt O95835). Kind of experiment: LATS1 Biochemical Caliper Assay (Compound Examples 291-335). The conditions noted are these: Caliper EZ Reader. The protocol:
The LATS1 biochemical Caliper assay was performed as following.
Human LATS1 kinase domain protein was purchased from Carnabio (catalogue number 01-123; lot 15CBS-0098D). Human LATS1, catalytic domain [589-1130(end) amino acids of accession number NP_004681.1] was co-expressed as N-terminal GST-fusion protein (90 kDa) with human His-tagged MOBKL1A [1-216(end) amino acids of accession number NP_775739.1] using baculovirus expression system. GST-LATS1 was purified by using glutathione sepharose chromatography. The substrate (Fluo-SGKtide; Peptide for LATS1; lot BS-41067) has the following sequence: 5-Fluo-Nva-[…]-amide (SEQ ID NO: 27) x TFA and was purchased from Biosyntan.
The reaction is performed in reaction buffer containing 50 mM Hepes pH 7,5; 0.02% Tween20; 0.02% BSA; 1 mM DTT; 10 uM Na3VO4 and 10 mM beta-Glycerolphosphat and fresh added 1 mM MgCl2 and qsp H2O.
The substrate solution (2× conc.) in Reaction Buffer contains 300 μM ATP and 4 μM Fluo-SGKtide.
The kinase solution (2× conc.) in Reaction Buffer contains 20 nM LATS1 kinase. 4.5 μL of 2× conc. Kinase solution, 50 nL of 1.8 mM compounds and 4.5 μL of substrate solution were added into 384-well plates black small volume from Greiner and incubated at 32° C. for 1 hour. 15 μL of stop buffer containing 100 mM Hepes pH 7,5; 5% DMSO; 0.1% Coating reagent; 10 mM EDTA and 0.02% Brij35 and qsp H2O to each well to terminate the reaction.
Substrates and products were electrophoretically separated using the microfluidic-based Caliper EZ Reader System (Caliper Life Sciences) using a 12 sipper chip (cat 760404). The separation takes place in Coating Buffer (idem Stop buffer) and containing 0.1% Coating reagent CR3 and 0.5% coating reagent CR8 (Perkin Elmer).
Plates were read using a LED with an excitation at 488 nm and a detection at 520 nm to 5 quantify the fluorescence intensity.

For experiment [2], the system named is Phospho-YAP (Ser127) in JHH-5 cells. In words: pYAP HTRF Assay (JHH-5 cells). The class given is cell-based. Conditions: 2 hours. The procedure, abridged:
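JHH-5 cells (24000/well) cultured 24 h at 37 °C in William's E with 10% FBS, then exposed to compounds for 2 h at 37 °C. After lysis, pYAP d2/cryptate antibodies incubated 18 h at room temperature; HTRF ratio 665/620 nm ×10000.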

Chain of Human LATS1 kinase domain protein (O95835 whole entry, looked up, the tested form may be a part): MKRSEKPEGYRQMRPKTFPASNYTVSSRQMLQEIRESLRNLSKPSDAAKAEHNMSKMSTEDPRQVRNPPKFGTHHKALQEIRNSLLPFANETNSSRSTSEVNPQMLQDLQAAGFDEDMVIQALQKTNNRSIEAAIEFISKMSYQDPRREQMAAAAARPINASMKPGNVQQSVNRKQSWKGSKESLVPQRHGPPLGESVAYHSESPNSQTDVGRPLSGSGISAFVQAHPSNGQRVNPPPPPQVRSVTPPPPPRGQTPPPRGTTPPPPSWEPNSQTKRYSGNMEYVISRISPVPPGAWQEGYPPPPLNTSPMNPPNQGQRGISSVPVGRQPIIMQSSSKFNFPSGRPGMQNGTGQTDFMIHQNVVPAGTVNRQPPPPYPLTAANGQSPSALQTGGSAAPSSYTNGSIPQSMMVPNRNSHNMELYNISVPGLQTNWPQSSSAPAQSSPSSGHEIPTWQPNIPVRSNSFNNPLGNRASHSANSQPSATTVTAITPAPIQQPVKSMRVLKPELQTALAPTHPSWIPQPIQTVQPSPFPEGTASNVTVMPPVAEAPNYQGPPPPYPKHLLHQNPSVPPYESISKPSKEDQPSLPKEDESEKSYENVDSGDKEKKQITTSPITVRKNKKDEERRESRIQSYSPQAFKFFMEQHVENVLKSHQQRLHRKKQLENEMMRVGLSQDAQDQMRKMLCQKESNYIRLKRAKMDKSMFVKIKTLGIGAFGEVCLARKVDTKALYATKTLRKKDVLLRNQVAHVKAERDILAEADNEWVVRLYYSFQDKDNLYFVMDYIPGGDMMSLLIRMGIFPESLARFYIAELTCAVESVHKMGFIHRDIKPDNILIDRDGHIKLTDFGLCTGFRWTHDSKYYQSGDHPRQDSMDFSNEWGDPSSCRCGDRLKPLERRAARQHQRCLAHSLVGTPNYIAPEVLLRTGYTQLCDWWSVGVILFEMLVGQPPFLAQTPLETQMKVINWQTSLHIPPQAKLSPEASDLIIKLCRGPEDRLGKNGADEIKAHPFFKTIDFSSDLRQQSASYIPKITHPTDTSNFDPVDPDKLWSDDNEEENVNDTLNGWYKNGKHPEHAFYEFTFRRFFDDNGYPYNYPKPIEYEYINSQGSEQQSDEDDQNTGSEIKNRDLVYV
Chain of Human LATS1 kinase domain protein (Q7L9L4 whole entry partner, looked up, the tested form may be a part): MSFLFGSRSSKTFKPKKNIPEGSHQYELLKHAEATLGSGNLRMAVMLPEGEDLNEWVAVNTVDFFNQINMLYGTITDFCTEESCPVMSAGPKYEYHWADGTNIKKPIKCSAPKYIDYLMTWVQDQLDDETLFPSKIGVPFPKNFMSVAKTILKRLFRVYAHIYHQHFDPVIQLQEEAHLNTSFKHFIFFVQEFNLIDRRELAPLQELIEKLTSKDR

Turning to `CC(C)(N)CNc1cc(-c2ccncc2)nc2cnccc12` [Example 295, 2-methyl-N1-(2-(pyridin-4-yl)-1,7-naphthyridin-4-yl)propane-1,2-diamine], the IC50 is 10 nM in experiment [1] and greater than 10 µM in experiment [2].
Take `CC1CCCCN1c1cc(-c2ccncc2)nc2cnccc12` (stereo not shown) [Example 293, 4-(2-methylpiperidin-1-yl)-2-(pyridin-4-yl)-1,7-naphthyridine]: the 50% inhibitory concentration (IC50) in experiment [1] came to 16 nM. In other words, the double-digit nanomolar range.
Same read-out and setting: to `CC(C)(CCNC(=O)OC(C)(C)C)Nc1nc(-c2ccncc2)nc2cnccc12` [Example 328, tert-butyl (3-methyl-3-((2-(pyridin-4-yl)pyrido[3,4-d]pyrimidin-4-yl)amino)butyl)carbamate] belongs 18.9 nM; to `CC(C)(C)OC(=O)NCCNc1nc(-c2ccncc2)nc2cnccc12` [Example 311, tert-butyl (2-((2-(pyridin-4-yl)pyrido[3,4-d]pyrimidin-4-yl)amino)ethyl)carbamate], 1030 nM; to `CN(C)C(C)(C)CNc1cc(-c2ccncc2)nc2cnccc12` [Example 302, N^2,N^2,2-trimethyl-N^1-(2-(pyridin-4-yl)-1,7-naphthyridin-4-yl)propane-1,2-diamine], 59.5 nM.
Take `CN(c1cc(-c2ccncc2)nc2cnccc12)C(C)(C)C` [Example 306, N-(tert-butyl)-N-methyl-2-(pyridin-4-yl)-1,7-naphthyridin-4-amine]: the values for the half-maximal inhibitory concentration (IC50) in experiment [1] and in experiment [2] were 1.2 nM and 1 µM, respectively.
In turn, `CN1CCN(c2cc(-c3ccncc3)nc3cnccc23)CC1` [Example 291, 4-(4-methylpiperazin-1-yl)-2-(pyridin-4-yl)-1,7-naphthyridine] yielded a half-inhibitory concentration (IC50) in experiment [1] of 457 nM.
Regarding `FC(F)(F)[C@H]1CN(c2nc(-c3ccncc3)nc3cnccc23)CCN1` [Example 319, (R)-2-(pyridin-4-yl)-4-(3-(trifluoromethyl)piperazin-1-yl)pyrido[3,4-d]pyrimidine], the IC50 in experiment [1] is 58.1 nM; in experiment [2], greater than 10 µM.
For `CN(C)CC(C)(C)CNc1nc(-c2ccncc2)nc2cnccc12` [Example 323, N^1,N^1,2,2-tetramethyl-N^3-(2-(pyridin-4-yl)pyrido[3,4-d]pyrimidin-4-yl)propane-1,3-diamine], in experiment [1], inhibition was half-maximal at 4.5 nM (IC50).
In the case of `CC(C)(CN)CNc1cc(-c2ccncc2)nc2cnccc12` [Example 301, 2,2-dimethyl-N1-(2-(pyridin-4-yl)-1,7-naphthyridin-4-yl)propane-1,3-diamine], the half-inhibitory concentration (IC50) is 5.2 nM in experiment [1] and greater than 10 µM in experiment [2].
Take `CN(C)C(=O)C(C)(C)Nc1nc(-c2ccncc2)nc2cnccc12` [Example 314, N,N,2-trimethyl-2-((2-(pyridin-4-yl)pyrido[3,4-d]pyrimidin-4-yl)amino)propanamide]: in experiment [1], the 50% inhibitory concentration (IC50) came to 467 nM.
Same read-out and setting: to `CC(C)(Nc1nc(-c2ccncc2)nc2cnccc12)C(N)=O` [Example 326, 2-methyl-2-((2-(pyridin-4-yl)pyrido[3,4-d]pyrimidin-4-yl)amino)propanamide] belongs 57.2 nM.
Consider `NCCNc1nc(-c2ccncc2)nc2cnccc12` [Example 313, N-(2-(pyridin-4-yl)pyrido[3,4-d]pyrimidin-4-yl)ethane-1,2-diamine], for which the results for the half-maximal inhibitory concentration (IC50) in experiment [1] and in experiment [2] were 3.8 nM and 7.8 µM, respectively.
`FC(F)(F)[C@@H]1CN(c2nc(-c3ccncc3)nc3cnccc23)CCN1` [Example 321, (S)-2-(pyridin-4-yl)-4-(3-(trifluoromethyl)piperazin-1-yl)pyrido[3,4-d]pyrimidine] gave a concentration for half-maximal inhibition (IC50) in experiment [1] of 3.8 nM.
As for `Cc1n[nH]cc1-c1nc(NC(C)(C)CCN(C)C)c2ccncc2n1` [Example 309, N^1,N^1,3-trimethyl-N^3-(2-(3-methyl-1H-pyrazol-4-yl)pyrido[3,4-d]pyrimidin-4-yl)butane-1,3-diamine], the half-maximal inhibitory concentration (IC50) was 0.8 nM in experiment [1] and 2 µM in experiment [2].
On the same counts, the results for `CC(C)(CN)CNc1nc(-c2ccncc2)nc2cnccc12` [Example 317, 2,2-dimethyl-N^1-(2-(pyridin-4-yl)pyrido[3,4-d]pyrimidin-4-yl)propane-1,3-diamine] are 0.8 nM and 3.2 µM.
In experiment [1], `Cc1n[nH]c(C)c1-c1nc(NC(C)(C)CCN(C)C)c2ccncc2n1` [Example 332, N^3-(2-(3,5-dimethyl-1H-pyrazol-4-yl)pyrido[3,4-d]pyrimidin-4-yl)-N^1,N^1,3-trimethylbutane-1,3-diamine] showed an IC50 of 7.6 nM.
`CC(C)(C)Nc1nc(-c2nonc2N)nc2cnccc12` [Example 324, 4-(4-(tert-butylamino)pyrido[3,4-d]pyrimidin-2-yl)-1,2,5-oxadiazol-3-amine] yielded a concentration for half-maximal inhibition (IC50) in experiment [1] of 10.4 nM.
`CN(C)CC(C)(C)CN(C)c1nc(-c2ccncc2)nc2cnccc12` [Example 329, N^1,N^1,N^3,2,2-pentamethyl-N^3-(2-(pyridin-4-yl)pyrido[3,4-d]pyrimidin-4-yl)propane-1,3-diamine] came in with a half-inhibitory concentration (IC50) in experiment [1] of 3 nM.
As to `CC(C)(CNc1nc(-c2ccncc2)nc2cnccc12)NC(=O)OC(C)(C)C` [Example 310, tert-butyl (2-methyl-1-((2-(pyridin-4-yl)pyrido[3,4-d]pyrimidin-4-yl)amino)propan-2-yl)carbamate], the half-inhibitory concentration (IC50) in experiment [1] is 164 nM.
In experiment [1], `CC(C)(CNC(=O)OC(C)(C)C)CNc1nc(-c2ccncc2)nc2cnccc12` [Example 316, tert-butyl (2,2-dimethyl-3-((2-(pyridin-4-yl)pyrido[3,4-d]pyrimidin-4-yl)amino)propyl)carbamate] came in with a half-inhibitory concentration (IC50) of 42.5 nM.
`CC1(C)CN(c2cc(-c3ccncc3)nc3cnccc23)CCN1` [Example 298, 4-(3,3-dimethylpiperazin-1-yl)-2-(pyridin-4-yl)-1,7-naphthyridine]: in experiment [1], 59 nM corresponded to half-maximal inhibition (IC50). This IC50 and that of the compound before are within 1.5-fold of each other.
Still for that read-out and setting: to `c1cc(-c2cc(NC3COC3)c3ccncc3n2)ccn1` [Example 296, N-(oxetan-3-yl)-2-(pyridin-4-yl)-1,7-naphthyridin-4-amine] belongs 209 nM; to `c1cc(-c2cc(N3CCNCC3)c3ccncc3n2)ccn1` [Example 292, 4-(piperazin-1-yl)-2-(pyridin-4-yl)-1,7-naphthyridine], 43.3 nM.
Regarding `CN(C)CCC(C)(C)Nc1nc(-c2ccnc(F)c2)nc2cnccc12` [Example 331, N^3-(2-(2-fluoropyridin-4-yl)pyrido[3,4-d]pyrimidin-4-yl)-N^1,N^1,3-trimethylbutane-1,3-diamine], half-maximal inhibition in experiment [1] (IC50) required 10.5 nM.
`C[C@](O)(CNc1cc(-c2ccncc2)nc2cnccc12)C(F)(F)F` [Example 327, (S)-1,1,1-trifluoro-2-methyl-3-((2-(pyridin-4-yl)-1,7-naphthyridin-4-yl)amino)propan-2-ol]: in experiment [1], the half-inhibitory concentration (IC50) turned out to be 125 nM.
Take `CC1(C)CN(c2cc(-c3ccncc3)nc3cnccc23)CCO1` [Example 299, 2,2-dimethyl-4-(2-(pyridin-4-yl)-1,7-naphthyridin-4-yl)morpholine]: the midpoint of inhibition in experiment [1], the IC50, lay at 97.1 nM.
On to `FC(F)(F)[C@H]1CN(c2cc(-c3ccncc3)nc3cnccc23)CCN1` [Example 305, (R)-2-(pyridin-4-yl)-4-(3-(trifluoromethyl)piperazin-1-yl)-1,7-naphthyridine], for which, in experiment [1], inhibition was half-maximal at 663 nM (IC50).
For `CN(C)CCC(C)(C)Nc1nc(-c2c[nH]nc2C(F)(F)F)nc2cnccc12` [Example 333, N^1,N,3-trimethyl-N^3-(2-(3-(trifluoromethyl)-1H-pyrazol-4-yl)pyrido[3,4-d]pyrimidin-4-yl)butane-1,3-diamine], the half-inhibitory concentration (IC50) in experiment [1] was determined as 2.3 nM.
In experiment [1], `CCOC(=O)C(C)(C)Nc1nc(-c2ccncc2)nc2cnccc12` [Example 322, ethyl 2-methyl-2-((2-(pyridin-4-yl)pyrido[3,4-d]pyrimidin-4-yl)amino)propanoate] displayed an IC50 of 29.2 nM.
In experiment [1], `CCN(CC)CCC(C)(C)Nc1nc(-c2ccncc2)nc2cnccc12` [Example 330, N,N-diethyl-3-methyl-N^3-(2-(pyridin-4-yl)pyrido[3,4-d]pyrimidin-4-yl)butane-1,3-diamine] registered an IC50 of 3.1 nM.
With `CN(C)CCC(C)(C)Nc1nc(-c2ccnc(N)c2)nc2cnccc12` [Example 334, N^3-(2-(2-aminopyridin-4-yl)pyrido[3,4-d]pyrimidin-4-yl)-N^1,N^1,3-trimethylbutane-1,3-diamine], the IC50 in experiment [1] was determined as 6.1 nM.
The same measure, in the same setting: to `CN(C)C(C)(C)CNc1nc(-c2ccncc2)nc2cnccc12` [Example 325, N^2,N^2,2-trimethyl-N^1-(2-(pyridin-4-yl)pyrido[3,4-d]pyrimidin-4-yl)propane-1,2-diamine] belongs 3.7 nM.

The record behind these values is patent publication US11458138B2 (Novartis AG, priority 2017, dated 2022).
